Literature values as cited in patent US20190374552A1, “MULTIFUNCTIONAL FORMULATIONS AND METHODS TO CONTROL DERMATITIS AND PRURITUS” (priority 2016, published 2019).
Entries after “also recorded” stand apart in the source; their conditions may differ.

Experiments:
[1] = test system: stimulated lymphocytes
[2] = target: T1, hTRPV2 (Homo sapiens, UniProt Q9Y5S1)
T1 sequence (Q9Y5S1 1-764): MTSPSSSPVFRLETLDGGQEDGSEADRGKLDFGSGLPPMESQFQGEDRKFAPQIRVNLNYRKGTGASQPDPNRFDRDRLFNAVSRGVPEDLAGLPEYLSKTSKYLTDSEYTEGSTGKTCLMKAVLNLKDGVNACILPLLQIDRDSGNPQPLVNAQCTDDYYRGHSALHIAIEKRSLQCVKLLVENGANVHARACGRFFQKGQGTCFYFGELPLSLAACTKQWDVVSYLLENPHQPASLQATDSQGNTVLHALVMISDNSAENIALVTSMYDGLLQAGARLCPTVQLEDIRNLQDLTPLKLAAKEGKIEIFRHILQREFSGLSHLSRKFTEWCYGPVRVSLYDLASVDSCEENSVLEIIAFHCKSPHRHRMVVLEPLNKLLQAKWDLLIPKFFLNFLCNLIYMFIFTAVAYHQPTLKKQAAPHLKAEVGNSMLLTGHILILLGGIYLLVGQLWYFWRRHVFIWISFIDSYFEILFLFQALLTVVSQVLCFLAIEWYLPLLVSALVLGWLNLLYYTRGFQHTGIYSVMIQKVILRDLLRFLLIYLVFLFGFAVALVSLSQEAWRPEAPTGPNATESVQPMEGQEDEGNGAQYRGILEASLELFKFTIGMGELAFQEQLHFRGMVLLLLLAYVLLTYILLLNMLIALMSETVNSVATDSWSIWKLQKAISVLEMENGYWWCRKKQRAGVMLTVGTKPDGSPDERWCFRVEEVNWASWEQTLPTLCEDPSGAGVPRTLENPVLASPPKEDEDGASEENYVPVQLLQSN

[3] = target: T2, TRPV1 (Homo sapiens, UniProt Q8NER1)
Target sequence in this assay (Q8NER1 whole entry): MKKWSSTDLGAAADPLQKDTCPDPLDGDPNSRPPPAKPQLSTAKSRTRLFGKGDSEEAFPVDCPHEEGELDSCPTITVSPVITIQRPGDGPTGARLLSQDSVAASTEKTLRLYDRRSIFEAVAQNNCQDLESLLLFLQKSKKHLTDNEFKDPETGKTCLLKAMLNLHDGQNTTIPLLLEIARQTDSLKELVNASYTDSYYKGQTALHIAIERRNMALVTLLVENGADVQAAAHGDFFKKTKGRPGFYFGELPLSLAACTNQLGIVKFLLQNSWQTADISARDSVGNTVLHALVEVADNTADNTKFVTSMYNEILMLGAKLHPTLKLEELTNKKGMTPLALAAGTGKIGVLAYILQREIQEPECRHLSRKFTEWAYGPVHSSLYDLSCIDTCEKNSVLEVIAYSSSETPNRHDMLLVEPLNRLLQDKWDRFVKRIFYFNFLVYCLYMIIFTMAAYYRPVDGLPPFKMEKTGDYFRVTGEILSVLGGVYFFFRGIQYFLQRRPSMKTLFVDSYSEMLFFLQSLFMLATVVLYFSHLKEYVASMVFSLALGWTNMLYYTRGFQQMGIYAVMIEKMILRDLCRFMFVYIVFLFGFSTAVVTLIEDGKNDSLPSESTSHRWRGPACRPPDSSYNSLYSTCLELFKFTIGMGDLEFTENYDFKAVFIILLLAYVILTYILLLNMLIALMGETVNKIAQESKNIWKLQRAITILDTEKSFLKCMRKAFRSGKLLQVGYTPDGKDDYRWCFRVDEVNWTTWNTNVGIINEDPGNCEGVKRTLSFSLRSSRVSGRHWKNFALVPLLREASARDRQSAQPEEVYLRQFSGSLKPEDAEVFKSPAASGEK

[4] = target: human TRPM8 (hTRPM8) (Homo sapiens, UniProt Q7Z2W7)
[5] = target: T3, TRPA1 (Homo sapiens, UniProt O75762)
Target sequence in this assay (O75762 whole entry): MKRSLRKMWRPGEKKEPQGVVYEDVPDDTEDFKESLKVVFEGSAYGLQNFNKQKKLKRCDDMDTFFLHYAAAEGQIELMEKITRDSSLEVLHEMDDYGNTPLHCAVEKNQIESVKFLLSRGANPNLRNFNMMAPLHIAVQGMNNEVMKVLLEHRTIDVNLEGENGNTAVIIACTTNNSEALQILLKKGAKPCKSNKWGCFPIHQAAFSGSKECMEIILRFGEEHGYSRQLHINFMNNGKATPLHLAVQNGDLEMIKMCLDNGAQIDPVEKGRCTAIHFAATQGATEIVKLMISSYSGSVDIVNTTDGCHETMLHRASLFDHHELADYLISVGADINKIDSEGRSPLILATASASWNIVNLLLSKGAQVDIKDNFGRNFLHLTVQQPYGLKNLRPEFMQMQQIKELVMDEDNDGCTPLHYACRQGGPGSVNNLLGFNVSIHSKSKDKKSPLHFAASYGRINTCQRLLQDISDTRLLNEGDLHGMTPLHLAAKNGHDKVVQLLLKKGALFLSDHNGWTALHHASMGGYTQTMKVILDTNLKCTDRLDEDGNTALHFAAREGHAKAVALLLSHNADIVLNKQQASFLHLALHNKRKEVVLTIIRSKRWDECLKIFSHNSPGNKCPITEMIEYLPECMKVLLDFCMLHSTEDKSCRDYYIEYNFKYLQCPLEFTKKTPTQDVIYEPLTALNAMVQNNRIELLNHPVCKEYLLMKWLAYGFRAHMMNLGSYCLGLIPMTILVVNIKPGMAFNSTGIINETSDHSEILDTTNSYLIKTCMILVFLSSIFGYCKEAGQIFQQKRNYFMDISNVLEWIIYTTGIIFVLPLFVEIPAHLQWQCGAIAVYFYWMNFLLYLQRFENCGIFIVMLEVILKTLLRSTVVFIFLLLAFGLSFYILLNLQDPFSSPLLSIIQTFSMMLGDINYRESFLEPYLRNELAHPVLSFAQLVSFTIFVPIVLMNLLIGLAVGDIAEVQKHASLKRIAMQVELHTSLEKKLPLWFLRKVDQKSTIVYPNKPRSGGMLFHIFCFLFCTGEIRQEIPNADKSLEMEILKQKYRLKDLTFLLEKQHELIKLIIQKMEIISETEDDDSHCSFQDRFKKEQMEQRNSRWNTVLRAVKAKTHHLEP

[6] = target: T3, TRPA1; settings: for inhibition of hTRPA1 activation by menthol and allyl isothiocyanate: compound at 1 mM, menthol 1 mM, allyl isothiocyanate 10 uM
Target sequence in this assay (O75762 whole entry): as above

[7] = target: T2, TRPV1; remark: listed apart in the source
Target sequence in this assay (Q8NER1 whole entry, species assumed): as the sequence (Q8NER1 whole entry) above

[8] = target: T3, TRPA1; remark: listed apart in the source
Target sequence in this assay (O75762 whole entry, species assumed): as the sequence (O75762 whole entry) above

[9] = test system: histaminergic itch; settings: topical application, human trials
[10] = test system: scratching behavior ACD; settings: mice exposed to haptens oxazolone and urushiol
[11] = target: TRPV1 (Rattus norvegicus, UniProt O35433); settings: compared with docosahexaenoic acid
[12] = test system: leukocyte migration; settings: induced by injection of carrageenan
[13] = test system: TNF-a and IL-6
[14] = test system: pain and itch responses; settings: mice
[15] = test system: TRPV1
[16] = target: TRPM8 (Homo sapiens, UniProt Q7Z2W7)
[17] = target: T3, TRPA1; remark: listed apart in the source
Target sequence in this assay (O75762 whole entry, species assumed): as the sequence (O75762 whole entry) above

[18] = target: T2, TRPV1; remark: listed apart in the source
Target sequence in this assay (Q8NER1 whole entry, species assumed): as the sequence (Q8NER1 whole entry) above

Chain of human TRPM8 (hTRPM8) (Q7Z2W7 whole entry): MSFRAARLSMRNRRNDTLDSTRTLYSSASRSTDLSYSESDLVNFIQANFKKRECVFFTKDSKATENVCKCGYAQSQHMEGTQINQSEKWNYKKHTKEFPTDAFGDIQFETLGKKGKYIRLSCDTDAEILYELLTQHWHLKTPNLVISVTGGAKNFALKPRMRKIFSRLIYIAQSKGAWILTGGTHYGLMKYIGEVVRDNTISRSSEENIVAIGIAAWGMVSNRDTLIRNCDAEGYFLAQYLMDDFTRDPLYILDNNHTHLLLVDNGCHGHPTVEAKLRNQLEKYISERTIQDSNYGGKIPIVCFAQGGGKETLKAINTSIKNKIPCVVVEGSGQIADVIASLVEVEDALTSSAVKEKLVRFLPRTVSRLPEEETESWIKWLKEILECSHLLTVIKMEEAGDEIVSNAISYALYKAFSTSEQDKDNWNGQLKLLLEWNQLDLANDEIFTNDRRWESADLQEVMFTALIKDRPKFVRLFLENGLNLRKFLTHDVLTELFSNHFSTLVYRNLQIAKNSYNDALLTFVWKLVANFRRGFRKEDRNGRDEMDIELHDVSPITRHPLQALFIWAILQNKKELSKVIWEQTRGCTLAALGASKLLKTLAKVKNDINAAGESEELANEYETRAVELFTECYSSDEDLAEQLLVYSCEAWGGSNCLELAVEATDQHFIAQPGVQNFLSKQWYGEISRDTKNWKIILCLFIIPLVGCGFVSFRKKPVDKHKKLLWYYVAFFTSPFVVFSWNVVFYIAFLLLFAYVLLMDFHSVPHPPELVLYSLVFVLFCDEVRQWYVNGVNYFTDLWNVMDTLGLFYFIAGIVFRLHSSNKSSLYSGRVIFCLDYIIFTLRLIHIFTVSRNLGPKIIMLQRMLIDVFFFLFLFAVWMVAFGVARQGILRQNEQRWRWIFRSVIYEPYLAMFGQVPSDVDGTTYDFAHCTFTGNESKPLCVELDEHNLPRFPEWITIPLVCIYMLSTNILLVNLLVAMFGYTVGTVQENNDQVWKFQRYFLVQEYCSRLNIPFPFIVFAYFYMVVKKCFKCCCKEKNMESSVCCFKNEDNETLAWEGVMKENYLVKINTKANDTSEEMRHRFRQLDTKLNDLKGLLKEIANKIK
Chain of TRPM8 (Q7Z2W7 whole entry, species assumed): as the sequence (Q7Z2W7 whole entry) above
Chain of TRPV1 (Rattus norvegicus, UniProt O35433) (O35433 whole entry): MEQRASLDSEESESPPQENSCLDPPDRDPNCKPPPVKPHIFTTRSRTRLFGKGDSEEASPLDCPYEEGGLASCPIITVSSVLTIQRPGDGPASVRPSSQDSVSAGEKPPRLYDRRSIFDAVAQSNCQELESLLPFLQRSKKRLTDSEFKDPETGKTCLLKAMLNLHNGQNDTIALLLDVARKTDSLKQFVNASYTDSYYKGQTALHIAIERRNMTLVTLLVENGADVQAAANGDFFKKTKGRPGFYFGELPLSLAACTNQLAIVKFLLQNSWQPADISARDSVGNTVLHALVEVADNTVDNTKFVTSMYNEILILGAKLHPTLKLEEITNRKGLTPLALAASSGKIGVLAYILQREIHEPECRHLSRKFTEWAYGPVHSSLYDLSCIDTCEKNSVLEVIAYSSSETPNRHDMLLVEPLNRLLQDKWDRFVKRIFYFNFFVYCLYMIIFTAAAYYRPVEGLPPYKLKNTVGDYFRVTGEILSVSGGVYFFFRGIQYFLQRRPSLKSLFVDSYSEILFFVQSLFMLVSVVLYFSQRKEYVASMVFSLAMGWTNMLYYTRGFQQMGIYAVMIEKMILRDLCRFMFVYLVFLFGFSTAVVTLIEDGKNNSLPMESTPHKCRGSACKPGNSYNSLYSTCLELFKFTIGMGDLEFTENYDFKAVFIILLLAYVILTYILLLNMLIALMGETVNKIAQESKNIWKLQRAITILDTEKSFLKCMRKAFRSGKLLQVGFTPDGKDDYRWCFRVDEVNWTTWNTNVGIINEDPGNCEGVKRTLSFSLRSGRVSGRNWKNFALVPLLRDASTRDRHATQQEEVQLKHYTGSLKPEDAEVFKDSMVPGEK

CC12CCC(CC1)C(C)(C)O2 [1,8-cineole]
release of IL-I β, IL-4, IL-5 and TNF-a [1]: decreased
activation of hTRPV2 [2]: did not activate
activation of hTRPV1 [3]: did not activate
activation of hTRPM8 [4]: activates
activation of hTRPA1 [5]: did not activate

CC1(C)[C@@H]2CC[C@@]1(C)[C@](C)(O)C2 [2-methylosoborneol]
IC50 ([6]; TRPA1 activation by 20 uM AITC, read-out: IC-50 concentration, inactivation of TRPA1 activation): 120 µM
inhibition of hTRPA1 activation by menthol and allyl isothiocyanate [6]: completely inhibited
activation of hTRPA1 [5]: did not activate

O=C(CCCCC1CCSS1)NCCC(=O)NC(Cc1cnc[nH]1)C(=O)O (stereo not shown) [ADM 09]
block of TRPV1 agonist capsaicin [7]: blocked
block of TRPA1 agonist AITC [8]: blocked

CC1CCC(C(C)C)C(O)C1 (stereo not shown) [Example 1-menthol, 1-menthol]
activation of hTRPM8 [4]: activation
activation of hTRPA1 [5]: activated
effect on histaminergic / experimentally induced itch [9]: significant inhibitory effects; also recorded: significant and pronounced anti-pruritic effect; also recorded: relieved

CC(C)c1ccc(NC(=O)Cn2cnc3c2c(=O)n(C)c(=O)n3C)cc1 [HC-030031]
scratching behavior [10]: inhibition of scratching

CC/C=C\C/C=C\C/C=C\CCCCCCCC(=O)O [a-linolenic acid]
TRPV1 inhibition [11]: markedly more effective inhibitors

CC1(C)C2CCC1(C)C(O)C2 (stereo not shown) [borneol]
leukocyte migration [12]: reduce
inhibition of TNF-a and IL-6 [13]: inhibits
inhibition of hTRPA1 activation by menthol and allyl isothiocyanate [6]: completely inhibited
activation of hTRPA1 [5]: did not activate

CC12CCC(CC1=O)C2(C)C (stereo not shown) [camphor]
activation of hTRPA1 [5]: did not activate

CC12CCC(C1)C(C)(C)C2O (stereo not shown) [fenchyl alcohol]
inhibition of hTRPA1 activation by menthol and allyl isothiocyanate [6]: completely inhibited
activation of hTRPA1 [5]: did not activate

O=C1CC2CC[C@H]1C2 [norcamphor]
activation of hTRPA1 [5]: did not activate

CCCCCCCC/C=C\CCCCCCCC(=O)O [oleic acid]
pain and itch responses [14]: inhibited
TRPV1 activity [15]: inhibited

Hyaluronan [HA]
TRPM8 channel function [16]: not affected
TRPA1 channel function [17]: not affected
TRPV1 channel activity [18]: inhibits
